Measurements: PubChem BioAssay AID624438 (The Scripps Research Institute Molecular Screening Center, 2012)
Active and inactive are the calls of the source.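 The calls were made as follows: active = IC50 below 50 µM against the phosphatase PP2C-alpha; inactive = IC50 at or above 50 µM.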

Molecular target: Protein phosphatase 1A (Homo sapiens) (UniProt P35813)
Assay: PP2C-alpha phosphatase inhibitors, late-stage follow-up, selectivity assay for PP5 inhibitor project, biochemical, fluorescence, OMFP substrate, round 5 (AID 624438)
Settings: purified MBP-PP2C-alpha, OMFP dephosphorylation fluorescence

Sequence of Protein phosphatase 1A (Homo sapiens) (P35813 whole entry, looked up): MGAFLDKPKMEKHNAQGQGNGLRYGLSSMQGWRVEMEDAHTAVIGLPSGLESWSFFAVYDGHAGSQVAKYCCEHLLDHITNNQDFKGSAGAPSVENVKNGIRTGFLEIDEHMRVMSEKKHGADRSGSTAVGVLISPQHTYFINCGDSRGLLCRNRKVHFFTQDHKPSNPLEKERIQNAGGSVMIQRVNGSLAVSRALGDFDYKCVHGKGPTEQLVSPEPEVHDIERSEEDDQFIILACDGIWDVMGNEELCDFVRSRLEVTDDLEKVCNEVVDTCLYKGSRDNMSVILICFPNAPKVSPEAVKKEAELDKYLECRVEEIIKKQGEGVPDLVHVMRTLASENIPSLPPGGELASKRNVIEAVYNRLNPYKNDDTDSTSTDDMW

IC50: > 1000 µM (inactive)
SMILES: CC(C)Oc1ccccc1-c1n[nH]nc1C(=O)O
